Source: US11278595B2, “Peptides comprising non-natural amino acids and methods of making and using the same” (Longevity Biotech, Inc., priority 2013, dated 2022)
Numbered stars: 1 amine (or outer) side, 2 acyl side, 3 side chain; on linkers, the order of the positions; unused ones are H or OH. Square brackets hold non-standard residues; d marks the D form. Peptide text beside a SMILES is read from it. ξ: configuration not given here. ξ(4-Aminopyrrolidine-3-CO) = O=C(C1CNCC1N[*:1])[*:2]; X3 = O=C(C1CCCC1N[*:1])[*:2]; β3hK = NCCCC[C@H](N)CC(=O)O; βAla = NCCC(=O)O

Columns and labels:
protease = test: In vitro protease stability assay; assay type: in vitro ADME; conditions: FIG. 1; compared to Ro 25-1553 (one lactam bridge)
Experimental: In Vitro Stability Assay: Stock solutions of the both the naturally occurring peptides as well as peptide analogs are prepared at a concentration of 250 μM (based on UV absorbance) in a 2% DMSO solution of appropriate buffering conditions. Standard solution of proteinase K in addition to other common animal proteases (i.e. Cathepsins, Trypsins, dipeptidyl peptidase IV and chymotrypsin) were prepared at the following concentrations in appropriate buffers separately: Protease K: 250 μg/ml, Chymotrypsin 25 μg/mL and DPP-IV 40 units/ml. For a Protease K assay, the following recipe was followed: 1 μL enzyme was added to 5 μL peptide analog in 44 μL PBS. […] 50 μL of the resulting quenched reaction are then injected onto an analytical reverse phase HPLC, and the amount of starting peptide present quantified by integration of the appropriate chromatogram peak via absorbance at either 220 or 280 nm. […] Half-lives are determined by fitting time dependent peptide concentration to an exponential decay using GraphPad Prism. Samples for some time points will be analyzed by mass spectrometery, and the products observed are used to identify amide bonds cleaved in the course of the reaction. The relative stability enhancement is determined through the comparison of the various analogs with its naturally occurring peptide counterpart. […]

[1] = system: anti-CD3 stimulated naïve CD4+CD25− T cells; test: Inhibition assay of suppressive function of Treg from treated donor mice; assay type: cell-based; conditions: compared to PBS Treg populations; 1:1 Treg to responder ratio; donors injected daily/5 days/i.p.
Experimental: Immediately following the final dose, mice were sacrificed, and single-cell suspensions were prepared from inguinal lymph nodes and spleens. CD4+ T cell populations from spleens and lymph nodes were enriched by negative selection with CD4-enrichment columns (R&D Systems, Minneapolis, Minn.), followed by CD25-PE positive selection with AutoMACS (Miltenyi Biotec, Auburn, Calif.). As determined by flow cytometric analysis, populations of Tregs and Teffs were consistently […] using this method (12). T cells were cultured in complete RPMI 1640 (RPMI 1640 [Invitrogen, Carlsbad, Calif.] supplemented with 10% FBS, 2 mM L-gluta-mine, 25 mM HEPES, 1 mM sodium pyruvate, […] nonessential amino acids, […] 2-ME, 100 U/ml penicillin, and […] streptomycin [Mediatech, Manassas, Va.]) in the presence of anti-CD3 (145-2C11; BD Pharmingen, San Diego, Calif.), 4YSyn, or N-4YSyn. […]
To assess whether VIP, LBT-V101 (SEQ ID NO: 22), LBT-V218 (SEQ ID NO: 18) and PBS treated splenocytes (SPC) suppress effector T cell proliferative responses, we evaluated SPC co-cultures from VIP-treated donors for their proliferative capacity in the presence of either anti-CD3. […] To test this hypothesis, we evaluated CD4+CD25+CD62Llow Treg isolated from naïve and VIP-treated mice for their capacity to inhibit CD3-mediated proliferation of CD4+CD25− naïve T cells. […]

[2] = system: dopaminergic neurons (TH+/Nissl+) in the SN; test: Parkinson's disease (MPTP) model, adoptive transfer of splenocytes from drug-treated donors; assay type: in vivo; conditions: MPTP mice; donors 15 ug/day/5 days; FIG. 5
Experimental: Parkinson's Disease (PD) Model (not prophetic): Male C57/BL6 mice, 8-12 w old, housed in the IACUC approved housing were administered an analog described herein as well as a pharmaceutically acceptable carrier for five days at a dose between (0.1 nM and 100 nM). Thereafter, SPC and Tregs from the mice are harvested and then transferred to another set of MPTP intoxicated mice using the following protocol.
Immediately following the final dose, mice were sacrificed, and single-cell suspensions were prepared from inguinal lymph nodes and spleens. […] As determined by flow cytometric analysis, populations of Tregs and Teffs were consistently […] using this method (12). […]
Mice were postmortem transcardially perfused with PBS, followed by 4% para-formaldehyde (Sigma-Aldrich). […] Fluorojade C (FJ-C) staining (Millipore, Billerica, Mass.) was performed on adjacent sections, according to the manufacturer's protocol, to assess de-generating neurons and was quantified using ImageJ. Overall, dopaminergic neuron survival was assessed 7 d following MPTP intoxication and resolution of cell death processes with polyclonal Abs to mouse tyrosine hydroxylase (TH; 1:1000; EMD Chemicals/Calbiochem, San Diego, Calif.) and were counterstained for Nissl substance by thionin staining. […] Quantitation of striatal TH (1:500; EMD Chemicals/Calbiochem, Gibbstown, N.J.) was performed by densitometric analysis. […]

Molecule | in-vitro protease stability (protease) | suppressive capacity of Treg on T cell proliferation [1] | neuroprotection after adoptive transfer of splenocytes from drug-treated donors [2]
CC(=O)N[C@@H](Cc1c[nH]cn1)C(=O)NC1CCCC1C(=O)N[C@@H](CC(=O)O)C(=O)N[C@@H](C)C(=O)NC1CCCC1C(=O)N[C@@H](Cc1ccccc1)C(=O)N[C@H](C(=O)N[C@@H](CCC(=O)O)C(=O)N[C@@H](CC(N)=O)C(=O)N[C@@H](Cc1ccc(O)cc1)C(=O)N[C@H](C(=O)N[C@@H](CCCCN)C(=O)N[C@@H](CC(C)C)C(=O)N[C@@H](CCCNC(=N)N)C(=O)N[C@@H](CCCCN)C(=O)N[C@@H](CCC(N)=O)C(=O)N[C@@H](CC(C)C)C(=O)N[C@@H](C)C(=O)N[C@@H](C)C(=O)NC1CNCC1C(=O)N[C@@H](CCCCN)C(=O)N[C@@H](Cc1ccc(O)cc1)C(=O)NC1CCCC1C(=O)N[C@@H](CC(N)=O)C(=O)N[C@@H](CC(=O)O)C(=O)N[C@@H](CC(C)C)C(=O)N[C@@H](CCCCN)CC(=O)N[C@@H](CCCCN)C(=O)NCC(=O)NCCC(=O)N[C@H](C(N)=O)[C@@H](C)O)[C@@H](C)O)[C@@H](C)O (stereo partly drawn) [LBT-V208, Ac-HxDAxFTENYTKLRKQLAAzKYxNDLkKGgT] (Ac-H[X3]DA[X3]FTENYTKLRKQLAA[ξ(4-Aminopyrrolidine-3-CO)]KY[X3]NDL[β3hK]KG[βAla]T-NH2) | stability is greater | – | –
HSDAVFTDNYTRLRKQMAVKKYLNSILN [VIP] | – | enhanced suppressive capacity | neuroprotective
